{"source": "patent US10507210B2", "about": "“Kinase inhibitor prodrug for the treatment of cancer” (Auckland UniServices Limited, priority 2014, dated 2019)", "key": {"[1]": {"system": "WT EGFR driven H125 xenografts", "conditions": "mouse, in vivo"}, "pERK": {"system": "pERK", "assay": "FaDu target modulation Western blot, pERK", "conditions": "1 h drug, EGF 50 ng/mL 15 min"}, "[2]": {"system": "EGFR pathway signal transduction", "assay": "FaDu target modulation, EGFR pathway relative dose potency"}, "EGFR signalling": {"system": "EGFR signalling", "assay": "Hypoxia preconditioning and TH-4000E sensitivity in FaDu cells", "format": "cell-based, human", "conditions": "48 h at 0.1% O2 or 21% O2", "description": "FaDu cells were seeded (500 k per well) in 6 well plates under both 0.1% O2 and 21% O2 for 48 hours. After 48 h of hypoxia preconditioning, cells were incubated with various concentrations of TH-4000E for 1 h.\nAfter the designated period of anoxic exposure, cells were washed once in ice-cold PBS. […] After clarification, a BCA assay was performed to determine the protein concentration of the samples. Absorbance readings were performed at 550 nm.\nCellular lysates were resolved by gel electrophoresis and immunoblotted for various members of the EGFR signaling axis. Each loading volume included 10 μg of protein and 25% LDS sample buffer (Life Technologies #NP0007). Samples were loaded onto NuPAGE 4-12% Bis-Tris 15 well gels (Life Technologies #NP0336) and run in MES running buffer (Life Technologies #NP0002) for approximately 2 h's at 120V or until the samples had run off the gel (whichever came first). Samples were then transferred (Transfer buffer: 25 mM Tris, 192 mM glycine, 20% methanol) for 80 mins at 100V onto nitrocellulose membranes. Blots were blocked in 5% BSA or 5% phosphoblocker (CellBiolabs #AKR-104) in TBS-T for at least 1 h. Briefly, blots were incubated with primary antibodies overnight at 4° C. After three 5 min washes in TBS-T, blots were then incubated with the appropriate HRP-conjugated secondary antibody for at least 2 hours at room temperature. […]"}, "pEGFR (Y1068)": {"biological_target": "pEGFR (Y1068) (Homo sapiens, UniProt P00533)", "assay": "FaDu target modulation Western blot, pEGFR"}, "FaDu cells [3]": {"system": "FaDu cells", "assay": "FaDu anti-proliferative assay, oxic vs anoxic 24 h exposure", "format": "cell-based, human", "protocol": "(§1) FaDu cells were grown in αMEM culture medium supplemented with 5% FBS, without routine use of antibiotics (P/S). Cultures were re-established from authenticated frozen stocks in liquid nitrogen at either >24 passages or >90 days in culture (whichever came first). The frozen cell stocks were confirmed to be free of mycoplasma using a PCR-ELIZA kit (Roche Diagnostics GmbH, Mannheim, Germany).\nMonolayers of FaDu cells were harvested by trypsinisation and counted using a hemocytometer. For the oxic assays, cells were seeded (1500 cells/well) in 96 well plates and allowed to settle for 2 hours in a humidified incubator (37 C/5% CO2). Cells were then treated with ten serial dilutions (3-fold) of each test compound for 24 hours. For the anoxic plates, all supplies were pre-equilibrated for at least 72 hours in a H2/palladium-catalyst anaerobic chamber (Bactron, Shellab) to remove any residual oxygen. On the experiment day, cells were centrifuged (1000 rpm, 5 min) to pellet cells. The media was aspirated. The pellet was then taken into the anaerobic chamber and diluted in anoxia-equilibrated media (αMEM culture media, 5% FCS, 0.2 mmol/L 2′-deoxycytidine, 10 mmol/L glucose) to achieve the appropriate cell density. Cells were seeded in identical conditions to the oxic plates. Once seeded, cells were left to settle in a humidified incubator (37 C) within the anaerobic chamber for 2 hours. Anoxic plates were similarly treated with ten serial dilutions (3-fold) of each test compound. Anoxic plates were removed from the anaerobic chamber four hours after drug addition, and placed into a humidified incubator (37 C/5% CO2) for a further 20 hours. After a total of 24 hours of drug exposure, both the oxic and anoxic plates were washed three times in fresh media (αMEM+5% FCS+P/S). Cells were left to grow for a total of 5 days. After which, cells were fixed with 40% trichloroacetic acid for 1 hour at 4° C. Plates were then stained for Sulforhodamine B (SRB) expression. Cell density was determined by using the Biotek ELx808 Absorbance Microplate Reader. […]"}, "pAkt": {"system": "pAkt", "assay": "FaDu target modulation Western blot, pAkt", "conditions": "1 h drug, EGF 50 ng/mL 15 min"}, "FaDu cells [4]": {"system": "FaDu cells", "assay": "FaDu anti-proliferative assay, five day continuous aerobic exposure", "format": "cell-based, human", "protocol": "as §1\nCells were then treated with ten serial dilutions (3-fold) of each test compound. Cells were left to grow in a humidified incubator (5% CO2, 37° C.) for 5 days. Cells were then fixed with 40% trichloroacetic acid for 1 h at 4° C. Cells were then stained for Sulforhodamine B (SRB) expression. Cell density was determined by using the Biotek ELx808 Absorbance Microplate Reader."}, "in vivo [5]": {"assay": "in vivo", "conditions": "NIH-III, mouse, plasma, ip, 15 mg/kg; for Cmax: 15 mg/kg TH-4000 ip, ± SE", "protocol": "(§2) Mice were inoculated with PC-9 cells (˜8×10^6 cells per mouse, 42 mice in total). […] The whole tumors were snap frozen (with liquid nitrogen) and bio-pulverised. The tumors were measured every day until collection to correlate the growth kinetics of the tumor to target shutdown.\n(§3) For LC-MS/MS, 4 volumes of ice cold acetonitrile (containing 0.5 μM of D6-TH-4000 & TH-4000E) were added to the tumor samples. Samples were spun at 13,000 rpm for 5 min. and 40 μL of the supernatant was taken. To the supernant, 80 μL of 0.01% FA-Water was added and the sample was mixed. 10 μL of this sample was injected for analysis. […] The mass spectrometer was operated in electrospray positive ionization mode using multiple reaction monitoring (MRM). Agilent MassHunter software (v.4.04.00) was used for data acquisition and chromatographic peak integration."}, "[6]": {"conditions": "15 mg/kg TH-4000, tumor", "protocol": "as §2, §3"}, "[7]": {"system": "EGFR autophosphorylation (Y1068)", "protocol": "HCC827 and PC9 cell cultures are set up from log-phase passage flasks. Cells are seeded into 6-well plates at a density of 1 million cells per well and left for 48 hours under normoxic or hypoxic (1% O2) conditions. Following 3 hours of drug exposure, cells are washed in ice-cold PBS and lysed on ice for 30 minutes with radioimmunoprecipitation assay (RIPA) buffer containing sodium orthovanadate and sodium fluoride at final concentrations of 1 mM each. Cell debris is pelleted out by centrifugation (13,000 rpm for 2 minutes). Protein concentrations in each sample are determined by a bicinchoninic acid (BCA) assay. Equivalent amounts of protein (10 pig) are denatured (98° C. for 5 minutes) and loaded onto 4-20% Tris-Glycine protein gels for protein separation. Following transfer to a nitrocellulose membrane, each membrane was blocked with 5% bovine serum albumin (in Tris-buffered saline) for 1 hour. […] Excess primary antibody in each membrane was washed off with Tris-buffered saline. Secondary antibody (goat anti-rabbit) was added to each membrane at a dilution of 1:5000 for 2 hours. For protein detection, the membrane was washed in Tris-buffered saline to remove excess secondary antibody and chemiluminescent substrate added (Pierce Supersignal West Pico Chemiluminescent Substrate) for 5 minutes. The membrane was viewed using a Fujifilm LAS 4000 imager."}, "PC9 xenografts": {"system": "PC9 xenografts", "format": "in vivo", "conditions": "erlotinib 10 mg/kg daily oral, period of dosing 21 days", "protocol": "Tumors were grown to ˜400 mm^3. When tumors were 400 mm^3 mice were randomly assigned to groups A-J and treated as detailed below:\nThe length and width of subcutaneous tumors were measured with electronic calipers every 3 days and volume calculated according to the formula for a prolate ellipsoid (π/6×length×width×width). Body weight was recorded every 3 days or prior to dosing. All other clinical signs were recorded."}, "PC9 tumor": {"system": "PC9 tumor", "assay": "PC9 xenograft growth delay", "format": "in vivo, mice", "protocol": "(§4) HCC827 and PC9 human non-small cell lung cancer (NSCLC) cells were prepared in medium. […] HCC827 tumors were recruited at ˜200 mm^3 and PC9 tumors were recruited at ˜400 mm^3. When the tumors reached the desired volumes, the mice were randomly assigned to groups A-E and treated as detailed in Table 1 below:\n(§5) Body weight was recorded every 3 days or prior to dosing and the length and width of subcutaneous tumors were measured with electronic calipers every 3 days and volume calculated according to the formula for a prolate ellipsoid (π/6×length×width×width). All other clinical signs were recorded."}, "in vivo [8]": {"assay": "in vivo", "conditions": "NIH-III nude, mouse, blood, po, 10 mg/kg"}, "HCC827 tumor": {"system": "HCC827 tumor", "assay": "HCC827 xenograft growth delay", "format": "in vivo, mice", "conditions": "Erlotinib 10 mg/kg Qdx21 p.o.", "protocol": "as §4, §5"}, "[9]": {"system": "WT EGFR expressing A431 xenograft", "assay": "A431 xenograft antitumor activity", "format": "in vivo, mice", "conditions": "daily oral"}}}
{"compound": "CN(C)C/C=C/C(=O)Nc1cc2c(Nc3ccc(F)c(Cl)c3)ncnc2cc1O[C@H]1CCOC1", "note": "[Afatinib]", "values": [{"measurement": "Day of average weight loss nadir", "setting": "[1]", "value": "[day 9]"}]}
{"compound": "CN(C)C/C=C/C(=O)Nc1cc2c(Nc3ccc(Cl)c(Br)c3)ncnc2cn1", "note": "[TH-4000E]", "values": [{"measurement": "concentration completely silencing pERK expression", "setting": "pERK", "value": "≥ 0.12", "unit": "μM"}, {"measurement": "dose potency relative to TH-4000", "setting": "[2]", "value": "approximately 28 fold"}, {"measurement": "dose potency relative to cetuximab", "setting": "[2]", "value": "at least 250 fold"}, {"measurement": "sensitivity, oxia- vs hypoxia-preconditioned cells", "setting": "EGFR signalling", "value": "comparable"}, {"measurement": "concentration completely silencing pEGFR (Y1068) expression", "setting": "pEGFR (Y1068); 1 h drug, EGF 50 ng/mL 15 min", "value": "≥ 0.12", "unit": "μM"}, {"measurement": "pEGFR expression completely silenced up to", "setting": "pEGFR (Y1068); lowest concentration of 3-fold dilutions", "value": 0.041, "unit": "μM"}, {"measurement": "dose-potency relative to erlotinib (IC50)", "setting": "FaDu cells [3]", "value": 1400, "unit": "fold"}, {"measurement": "concentration largely silencing pAkt expression", "setting": "pAkt", "value": "above 0.12 μM"}, {"measurement": "dose potency relative to cetuximab", "setting": "FaDu cells [4]", "value": 150, "unit": "fold"}, {"measurement": "lower IC50 value than erlotinib", "setting": "FaDu cells [4]", "value": 80, "unit": "fold"}, {"measurement": "AUC(0-inf)", "setting": "in vivo [5]", "value": 106, "unit": "ng·h/mL"}, {"measurement": "half-life", "setting": "in vivo [5]", "value": 1.28, "unit": "h"}, {"measurement": "Cmax", "setting": "in vivo [5]; Cmax obs", "value": "47 ± 3.6", "unit": "ng/mL"}, {"measurement": "Cmax", "setting": "in vivo [5]; Cmax pred", "value": 50, "unit": "ng/mL"}, {"measurement": "T½β of released TKI in PC9 tumors", "setting": "[6]", "value": 84, "unit": "h"}]}
{"compound": "C=CC(=O)Nc1cc(Nc2nccc(-c3cn(C)c4ccccc34)n2)c(OC)cc1N(C)CCN(C)C", "note": "[AZD9291]", "values": [{"measurement": "effect of hypoxia on inhibition of EGFR phosphorylation", "setting": "[7]", "value": "resistance to AZD9291"}]}
{"compound": "C#Cc1cccc(Nc2ncnc3cc(OCCOC)c(OCCOC)cc23)c1", "note": "[Erlotinib]", "values": [{"measurement": "tumor response", "setting": "PC9 xenografts", "value": "stable disease"}, {"measurement": "effect of anoxia on sensitivity", "setting": "FaDu cells [3]", "value": "unaffected by anoxia"}, {"measurement": "IC50 lower than cetuximab", "setting": "FaDu cells [3]; after anoxic exposure", "value": 13, "unit": "fold"}, {"measurement": "Median Survival gain", "setting": "PC9 tumor; 10 mg/kg Erlotinib, reference Control", "value": 9, "unit": "days"}, {"measurement": "Median time to RTV4", "setting": "PC9 tumor; Erlotinib 10 mg/kg Qdx21 p.o.", "value": 39, "unit": "days"}, {"measurement": "AUC(0-inf)", "setting": "in vivo [8]", "value": 20000, "unit": "ng·h/mL"}, {"measurement": "Median time to RTV4", "setting": "HCC827 tumor", "value": 114, "unit": "days"}, {"measurement": "tumor outcome", "setting": "[9]", "value": "unable to prevent tumor progression"}, {"measurement": "IC50 difference, erlotinib superior to cetuximab", "setting": "FaDu cells [4]", "value": 2, "unit": "fold"}]}
